Data on one compound can be found in patent US20220047527A1, “FOOD-AND-DRINK COMPOSITION CONTAINING ASTAXANTHIN” (AstaReal Co., Ltd., priority 2016, published 2022).

For data set [1] the following is noted: as high as that of vitamin E; cited from earlier work.
Data set [2] relates to human having a sense of fatigue. In words: OSA sleep analysis (OSA sleep inventory MA version). In kind it is in vivo. Here is the method:
(§1) A placebo-controlled, randomized, double-blind, parallel-group study was employed for ingestion of the test food, and two groups, namely, the control group (placebo group) with ingestion of a capsule not containing astaxanthin and the astaxanthin group with ingestion of a capsule containing 6 mg of astaxanthin (120 mg of Haematococcus algae extract and 10 mg of tocotrienol mixture derived from palm oil) were compared through a double-blind method. For ingestion of the test food, the subjects were instructed to ingest one capsule twice daily (total 12 mg of astaxanthin (240 mg of Haematococcus algae extract and 20 mg of tocotrienol mixture derived from palm oil) in two capsules per day), one after breakfast (or after the first meal of the day if no breakfast was taken) and the other after dinner, with water or lukewarm water within 30 min of eating. The overall duration for ingestion was 8 weeks (12 weeks only for the OSA sleep analysis). The subjects were also instructed to record their test food ingestion, drinking, and exercise in a diary every day, from the first day to the last day of ingestion.
In accordance with a method reported in Yukari Yamamoto, Hideki Tanaka, Miki Takase, Katuo Yamazaki, Kazuo Azumi, and Shuichiro Shirakawa: “Development and standardization of OSA sleep inventory (MA version) for middle-aged and elderly individuals”, Brain Science and Mental Disorders, vol. 10, p 401-409, 1999, the subjects were instructed to evaluate with respect to items listed in the OSA sleep inventory, and the results were analyzed. The assessment was performed once in the morning of the day of assessment (before load application). The OSA sleep inventory (MA version) consists of 16 items in terms of five factors, namely, First factor: sleepiness on rising, Second factor: initiation and maintenance of sleep, Third factor: frequent dreaming, Fourth factor: refreshing, and Fifth factor: sleep length, and the subjects were instructed to answer each question from four choices, and the results were converted to scores with a conversion table for analysis.

Data set [3] shares this test system. Put plainly: Cycling task on a bicycle ergometer, task performance with a physical load. In kind it is in vivo. Conditions: between the groups (FIG. 19). On the procedure: A physical load was applied by a cycling task on a bicycle ergometer. Specifically, the subjects were instructed to pedal for 30 min with a rotation rate of the pedal adjusted to maintain the heart rate at 120 to 130 HR for men and 110 to 120 HR for women. The magnitude of the load was set at a constant level of 80 W for men and 70 W for women. The distance cycled (km) in 30 min was measured, which was used as the task performance with a physical load.

The test system is the same in data set [4]. In words: POMS (Profile of Mood States) analysis. The class given is in vivo. On the procedure: as §1
Using the self-administered POMS 2 in Japanese, adult short version (Kanekoshobo, Tokyo, Japan), the subjects answered 35 questions by rating their “current mood” on a 5-point scale (0=not at all; 1=a little; 2=moderately; 3=quite a bit; 4=extremely). Responses to each question were scored according to the POMS scoring system for the seven scales: anger-hostility, confusion-bewilderment, depression-dejection, fatigue-inertia, tension-anxiety, vigor-activity, and friendliness, and the raw scores were converted into TMD scores with a conversion table. The POMS was administered 3 times in total in one day: in the morning of the day of assessment (before load application), after mental load application (calculation load; Uchida-Kraepelin test), and at the end of the day of assessment (after the rest period). To determine transient changes in fatigue, the load-induced change was calculated by subtracting the pre-load value from the values after mental load application and after a rest period therefor. In addition, to determine the effect of test food ingestion alone, ingestion-induced change was calculated by subtracting the pre-load (pre-ingestion) value at week 0 from the pre-load value after 8-week ingestion.

Data set [5] can be described thus: Study 2: temporal change of human blood (plasma) astaxanthin level on long-term ingestion. In kind it is in vivo. Here is the method:
This study is a study in humans to confirm how the blood (plasma) astaxanthin level changes through long-term ingestion of astaxanthin. While the blood (serum) astaxanthin level was measured at the completion of ingestion (after 12-week ingestion) in Study 1, Study 2 is, specifically, a study in humans to confirm how the blood (plasma) astaxanthin level behaves in the case that the period of ingestion is shorter than 12 weeks.
Ten healthy Japanese men and women at age of 20 years or older and younger than 50 years
Each subject ingested two capsules per day, each capsule containing 60 mg (6 mg in terms of the free form of astaxanthin) of Haematococcus algae extract and 270 mg of edible fat and oil, with water 30 minutes after breakfast (12 mg/day in terms of the free form of astaxanthin) for 42 days.
Blood sampling was performed one day, six days, 13 days, 20 days, 27 days, 34 days, and 42 days after the initiation of ingestion of the capsules to obtain the plasma. The plasma astaxanthin level was measured by using the method in [5-4] in Study 1 with HPLC.

Setting [6] is: astaxanthin group vs pre-ingestion, no significant difference (FIG. 2).
The mark [7] stands for this setting: 2 capsules/day (12 mg/day free form) for 42 days (FIG. 20).

Molecules are shown by their SMILES.

Consider `CC1=C(/C=C/C(C)=C/C=C/C(C)=C/C=C/C=C(C)/C=C/C=C(C)/C=C/C2=C(C)C(=O)C(O)CC2(C)C)C(C)(C)CC(O)C1=O` (stereo not drawn) [astaxanthin, 3,3′-dihydroxy-β,β-carotene-4,4′-dione], for which the “antioxidative effect relative to vitamin E” value in data set [1] is listed as 1000 times. For the same compound, in data set [2] (setting [6]), the “OSA First factor (sleepiness on rising)” value is given as “large increase”; the “OSA Fourth factor (refreshing)” value is “large increase”; the “OSA Second factor (initiation and maintenance of sleep)” value is “large increase”. In addition, the “OSA Fifth factor (sleep length)” value in data set [2] (astaxanthin group, 12 mg/day, vs pre-ingestion (FIG. 2)) is on record as “marginally significant increase”. For the same compound, in data set [2] (vs literature: 200 mL chamomile tea 1 hour before bedtime over three days), the “degree of improvement in Fifth factor (sleep length) compared with chamomile tea” value is recorded as “larger”. Further, the cycling distance entry in data set [3] (after 4-week ingestion) is “no significant difference”. The cycling distance entry in data set [3] (after 8-week ingestion) is given as “no significant difference”. Moreover, the “POMS ingestion-induced change, Friendliness (F)” value in data set [4] (after 8-week ingestion minus pre-ingestion, vs control group (FIG. 6)) was “significant high value”. The “POMS load-induced change, Vigor-activity (VA)” value in data set [4] (after the rest period, after 8-week ingestion, vs control group (FIG. 6)) was “marginally significant high value”. For the same compound, the “POMS improvement in Vigor-activity (VA) compared with quercetin/isoquercetin” value in data set [4] (vs literature: 250 mg quercetin and 100 mg isoquercetin for 42 to 54 days) is recorded as “larger”. In addition, the “POMS improvement in Vigor-activity (VA), AH, FI and CB compared with bonito stock” value in data set [4] (vs literature: bonito stock morning and evening over two weeks) is recorded as “larger”. In data set [5] (setting [7]), the “human blood (plasma) astaxanthin level at plateau” value is “approximately 200 ng/mL” and the “time after initiation of ingestion at which plasma astaxanthin level plateaued” value is given as “about six”. In addition, in data set [5] (as long as ingestion of astaxanthin-containing food was continued), the “human blood (plasma) astaxanthin level during continued ingestion” value is “not lowered”.
